Reference: publication PMC9453454, “Design, synthesis, and anticancer activity of three novel palbociclib derivatives” (Frontiers in Oncology, 2022)

Columns and labels:
MDA-MB-231 cells = experiment: MTT in vitro cytotoxicity, MDA-MB-231; format: cell-based, human; conditions: MDA-MB-231 human breast cancer cells, MTT, 48 h; read-out: IC50
Experimental: (§1) Human lung cancer cells (NCI-H460, NCI-H1299, and A549), human breast cancer cells (MDA-MB-231, MDA-MB-453, and MCF-7), human liver cancer cells (Huh-7 and HepG2), human colon cancer cells (coca-2, HT-29, and HCT116), human cervical cancer cells (HeLa), human normal lung cells (BEAS-2B), and human normal […] (MCF-10) were from the State Key Laboratory of Pharmaceutical Biotechnology, Nanjing University. NCI-H460 were cultured in 1640 medium containing 10% fetal bovine serum (FBS). MDA-MB-231 were cultured in L15 medium containing 10% FBS without CO2, and other cell lines were cultured in DMEM medium containing 10% FBS CO2 in the incubator.
(§2) MTT assay was used to identify 14 different cell lines (human lung cancer cells NCI-H460, NCI-H1299, and A549; human breast cancer cells MDA-MB-231, MDA-MB-453, and MCF-7; human liver cancer cells Huh-7 and HepG2; human colon cancer cells coca-2, HT-29, and HCT116; and human cervical cancer cells HeLa) and 2 kinds of normal cell lines (human normal lung epithelial cells BEAS-2B, human normal breast epithelial cells MCF10-A) for quantitative analysis ([15]). In addition, 10-HCPT and palbociclib were used as positive control.
(§3) Cells were harvested during the logarithmic growth phase and seeded into 96-well plates at a density of 2.0×10^3 cells/well. After being incubated for 24 h, the cells were treated with different concentrations of various culture programs for 48 h. Afterwards, 20 μl of MTT solution (5 mg/ml) was added to each well, and the cells were incubated in a 5% CO2 atmosphere at 37°C for another 4 h. Then, the supernatant was discarded, and the formazan crystals were dissolved in 150 μl DMSO. Subsequently, the absorbance was measured at 570 nm via a Tecan microplate reader. The concentration that caused 50% inhibition of cell viability (IC50) values was calculated by GraphPad Software. Triplicate experiments were performed in parallel for each concentration, and the results are shown as the mean ± SD. The inhibitory ratio was calculated using the following formula: inhibitory ratio (%) = [1−(mean absorbance of experiment group)/(mean absorbance of control group)] × 100.

HepG2 cells = experiment: MTT in vitro cytotoxicity, HepG2; format: cell-based, human; conditions: HepG2 human liver cancer cells, MTT, 48 h; read-out: IC50
Experimental: as §1, §2, §3

MCF-7 cells = experiment: MTT in vitro cytotoxicity, MCF-7; format: cell-based, human; conditions: MCF7; MCF-7 human breast cancer cells, MTT, 48 h; read-out: IC50
Experimental: as §1, §2, §3

A549 cells = experiment: MTT in vitro cytotoxicity, A549; format: cell-based, human; conditions: A549 human lung cancer cells, MTT, 48 h; read-out: IC50
Experimental: as §1, §2, §3

MCF10-A cells = experiment: MTT in vitro cytotoxicity, MCF10-A normal breast epithelial cells; format: cell-based, human; conditions: MCF-10A; MCF10-A human normal breast epithelial cells, MTT, 48 h; read-out: IC50
Experimental: as §1, §2, §3

HT-29 cells = experiment: MTT in vitro cytotoxicity, HT-29; format: cell-based, human; conditions: HT-29 human colon cancer cells, MTT, 48 h; read-out: IC50
Experimental: as §1, §2, §3

NCI-H460 cells = experiment: MTT in vitro cytotoxicity, NCI-H460; format: cell-based, human; conditions: NCI-H460 human lung cancer cells, MTT, 48 h; read-out: IC50
Experimental: as §1, §2, §3

Coca-2 cells = experiment: MTT in vitro cytotoxicity, Coca-2; format: cell-based, human; conditions: Coca-2 human colon cancer cells, MTT, 48 h; read-out: IC50
Experimental: as §1, §2, §3

Huh-7 cells = experiment: MTT in vitro cytotoxicity, Huh-7; format: cell-based, human; conditions: Huh-7 human liver cancer cells, MTT, 48 h; read-out: IC50
Experimental: as §1, §2, §3

HCT116 cells = experiment: MTT in vitro cytotoxicity, HCT116; format: cell-based, human; conditions: HCT-116; HCT116 human colon cancer cells, MTT, 48 h; read-out: IC50
Experimental: as §1, §2, §3

MDA-MB-453 cells = experiment: MTT in vitro cytotoxicity, MDA-MB-453; format: cell-based, human; conditions: MDA-MB-453 human breast cancer cells, MTT, 48 h; read-out: IC50
Experimental: as §1, §2, §3

Hela cells = experiment: MTT in vitro cytotoxicity, Hela; format: cell-based, human; conditions: Hela human cervical cancer cells, MTT, 48 h; read-out: IC50
Experimental: as §1, §2, §3

NCI-H1299 cells = experiment: MTT in vitro cytotoxicity, NCI-H1299; format: cell-based, human; conditions: NCI-H1299 human lung cancer cells, MTT, 48 h; read-out: IC50
Experimental: as §1, §2, §3

BEAS-2B cells = experiment: MTT in vitro cytotoxicity, BEAS-2B normal lung epithelial cells; format: cell-based, human; conditions: BEAS-2B human normal lung epithelial cells, MTT, 48 h; read-out: IC50
Experimental: as §1, §2, §3

Compound | IC50 (MDA-MB-231 cells) | IC50 (HepG2 cells) | IC50 (MCF-7 cells) | IC50 (A549 cells) | IC50 (MCF10-A cells) | IC50 (HT-29 cells) | IC50 (NCI-H460 cells) | IC50 (Coca-2 cells) | IC50 (Huh-7 cells) | IC50 (HCT116 cells) | IC50 (MDA-MB-453 cells) | IC50 (Hela cells) | melting point | IC50 (NCI-H1299 cells) | IC50 (BEAS-2B cells)
CC[C@]1(O)C(=O)OCc2c1cc1n(c2=O)Cc2cc3cc(OC(=O)CCC(=O)N4CCN(c5ccc(Nc6ncc7c(C)c(C(C)=O)c(=O)n(C8CCCC8)c7n6)nc5)CC4)ccc3nc2-1 [HP-2, (R)-4-ethyl-4-hydroxy-3,14-dioxo-3,4,12,14-tetrahydro-1H-pyrano[3’,4’:6,7] indolizino[1,2-b]quinolin-9-yl4-(4-(6-((6-acetyl-8-cyclopentyl-5-methyl-7-oxo-7,8-dihydropyrido[2,3-d]pyrimidin-2-yl)amino)pyridin-3-yl)piperazin-1-yl)-4-oxobutanoate] | 16.5 ± 0.82 µM | 8.11 ± 1.34 µM | 16.7 ± 0.59 µM | 5.24 ± 0.37 µM | 31.38 ± 0.23 µM | 11.6 ± 0.57 µM | 1.32 ± 0.01 µM | 18.8 ± 0.46 µM | 16.5 ± 1.76 µM | 19.6 ± 1.21 µM | 6.38 ± 0.97 µM | 7.82 ± 2.34 µM | 48.9 to 50.5 °C | 3.35 ± 0.01 µM | 34.8 ± 0.44 µM
CC[C@]1(O)C(=O)OCc2c1cc1n(c2=O)Cc2cc3cc(OC(=O)/C=C/C(=O)N4CCN(c5ccc(Nc6ncc7c(C)c(C(C)=O)c(=O)n(C8CCCC8)c7n6)nc5)CC4)ccc3nc2-1 [HP-3, (R)-4-ethyl-4-hydroxy-3,14-dioxo-3,4,12,14-tetrahydro-1H-pyrano[3’,4’:6,7] indolizino[1,2-b]quinolin-9-yl(E)-4-(4-(6-((6-acetyl-8-cyclopentyl-5-methyl-7-oxo-7,8-dihydropyrido[2,3-d]pyrimidin-2-yl)amino)pyridin-3-yl)piperazin-1-yl)-4-oxobut-2-enoate] | 27.3 ± 1.43 µM | 6.84 ± 0.91 µM | 21.4 ± 1.27 µM | 5.52 ± 0.11 µM | 37.3 ± 1.66 µM | 15.4 ± 0.42 µM | 2.08 ± 0.25 µM | 17.1 ± 0.28 µM | 33.7 ± 1.03 µM | 23.2 ± 0.49 µM | 8.31 ± 0.52 µM | 14.9 ± 0.73 µM | 45.7 to 47.3 °C | 4.35 ± 0.13 µM | 39.98 ± 0.16 µM
